Reference: article PMC5773577, “Novel Miniature Membrane Active Lipopeptidomimetics against Planktonic and Biofilm Embedded Methicillin-Resistant Staphylococcus aureus” (Scientific Reports, 2018)
Values after ≈ are worked out from the molar mass of the structure shown. Read-outs that look alike come from different tables or passages of the source.

Key:
Assay type in all cases: cell-based, Staphylococcus aureus
[1] = test system: S. aureus (ATCC 29213); assay: microbe, parasite or virus in culture; details: Staphylococcus aureus, ATCC29213, MHB, 2–5 × 10^5 CFU/mL, 16–18 h, 37 °C, OD600, duplicate, at least three days, read-out: Minimum inhibitory concentration, MIC
Summary of the method: (§1)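 First, each compound was diluted 2-fold serially in 0.2% BSA containing 0.01% acetic acid. Mid-log bacteria in Mueller-Hinton broth were then added at 2–5 × 10^5 CFU/mL, and plates were incubated overnight (16–18 h) at 37 °C with shaking before OD600 measurement.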

[2] = test system: S. aureus (ISP479C); assay: microbe, parasite or virus in culture; details: Staphylococcus aureus, MHB, 2–5 × 10^5 CFU/mL, 16–18 h, 37 °C, OD600, read-out: Minimum inhibitory concentration, MIC
Summary of the method: as §1

[3] = test system: S. aureus (ATCC 25923); assay: microbe, parasite or virus in culture; details: Staphylococcus aureus, ATCC25923, MHB, 2–5 × 10^5 CFU/mL, 16–18 h, 37 °C, OD600, read-out: Minimum inhibitory concentration, MIC
Summary of the method: as §1

[4] = test system: MRSA (ATCC 33591); assay: microbe, parasite or virus in culture; details: Staphylococcus aureus, MHB, 2–5 × 10^5 CFU/mL, 16–18 h, 37 °C, OD600, read-out: Minimum inhibitory concentration, MIC
Summary of the method: as §1

[5] = test system: MRSA (ATCC 43300); assay: microbe, parasite or virus in culture; details: Staphylococcus aureus, MHB, 2–5 × 10^5 CFU/mL, 16–18 h, 37 °C, OD600, read-out: Minimum inhibitory concentration, MIC
Summary of the method: as §1

[6] = test system: MRSA ATCC 33591; assay: microbe, parasite or virus in culture; details: Staphylococcus aureus, MRSA ATCC 33591, read-out: Minimum inhibitory concentration, MIC
Protocol: An initial inoculum of mid-log phase 10^7 CFU/mL was used and MIC experiment was performed as described earlier. For serum/plasma stability assay a method as described previously was used with slight modifications. Briefly, 50 μL MHB medium containing desired concentration of test peptidomimetics was incubated with 50 µL mice plasma/fetal bovine serum for 3 h at 37 °C. After incubation, a 10 μL aliquot was taken out for MIC determination as described above. For the experiment, mid-log phase 2–5 × 10^5 CFU/mL were used as initial inoculum. For the growth control wells, an equivalent amount of plasma/FBS in the medium was also added to evaluate their effect on the viability of cells. A slight decrease in OD600 of cells incubated with mice plasma was observed compared to untreated growth control in MHB alone. The experiments were repeated on two different days and reproducible MIC values were observed.

[7] = test system: MRSA ATCC 33591 biofilm; assay: Biofilm formation inhibition, alamar blue (AB) assay; details: 24 h biofilm formation inhibition, 2.5 μg/mL
Protocol: For the experiment, a protocol as described previously was used with slight modifications. Briefly, desired concentrations of the test agents in PBS were added to the wells of a 96-well plate (100 μL). Thereafter, overnight grown stationary phase MRSA ATCC 33591 culture (~4 × 10^5 CFU/mL) in TSB medium (supplemented with 0.25% glucose and 0.5% NaCl) was added to the 96-well plates (100 μL). The plates were incubated at 37 °C without shaking for 24 h. After 24 h, the used medium was discarded and the biofilms formed were washed with PBS once. Subsequently, CV and AB assays were performed to quantify biomass and viability respectively, as described below:
For AB assay, after washing the treated biofilms, a solution of 10% AB reagent in TSB medium (200 μL) was added to the wells of the plates. The plates were sonicated briefly in a bath sonicator (5 min) and kept at room temperature for 30 min in dark. After 30 min, fluorescence was measured by exciting the samples at 550 nm and collecting emission at 590 nm.
The experiments were repeated on two different days and on each day 6 wells were used for a single treatment. Mean ± S.E. for both CV assay and AB assay is presented here. Corresponding to CV and AB assay the viability of cells upon treatment was also evaluated. […] The agar plates were incubated at 37 °C for 16–24 h and CFUs were counted. […]

Compound: CN[C@H](CC(C)C)C(=O)N[C@H]1C(=O)N[C@@H](CC(N)=O)C(=O)N[C@H]2C(=O)N[C@H]3C(=O)N[C@H](C(=O)N[C@H](C(=O)O)c4cc(O)cc(O)c4-c4cc3ccc4O)[C@H](O)c3ccc(c(Cl)c3)Oc3cc2cc(c3O[C@@H]2O[C@H](CO)[C@@H](O)[C@H](O)[C@H]2O[C@H]2C[C@](C)(N)[C@H](O)[C@H](C)O2)Oc2ccc(cc2Cl)[C@H]1O [VAN, vancomycin]
- MIC [1]: 0.7 µg/mL (≈ 0.483 µM)
- MIC [2]: 0.3 µg/mL (≈ 0.207 µM)
- MIC [3]: 1.4 µg/mL (≈ 0.966 µM)
- MIC [4]: 1.4 µg/mL (≈ 0.966 µM)
- MIC [5]: 0.7 µg/mL (≈ 0.483 µM)
- MIC ([6]; after 3 h pre-incubation at 37 °C with fetal bovine serum (50%, v/v), inoculum 2–5 × 10^5 CFU/mL, repeated on two days): 1.4 µg/mL (≈ 0.966 µM)
- MIC ([6]; after 3 h pre-incubation at 37 °C with mice plasma (50%, v/v), inoculum 2–5 × 10^5 CFU/mL, repeated on two days): 1.4 µg/mL (≈ 0.966 µM)
- MIC ([6]; initial inoculum 10^7 CFU/mL, mid-log phase): 2.8 µg/mL (≈ 1.93 µM)
- % viable cells compared to untreated control (AB assay) [7]: < 1%
